“And” between values parts separate entries of the source, which are not always exact repeats. Identical values can stand only once. Like-named read-outs stand apart in the source and are kept apart here.
How the values were obtained:
[1] = target: T1, H. pylori urease (HPU) (Helicobacter pylori, UniProt P69996); assay: Urease inhibition test (modified Berthelot method); format: biochemical; conditions: replicates
T1 construct: HPU was prepared as previously described; made in house
Procedure: HPU was prepared as previously described. The standard urease assay mixture included 150 mM urea in 20 mM HEPES buffer (pH 7.5). After addition of small aliquots of enzyme-containing solution of urease, the assay ran for 20 min. The enzymatic activity was evaluated spectrophotometrically by detecting the ammonia concentration at 595 nm according to the modified Berthelot (phenol-hypochlorite) method. Urease activity was estimated with JBU as a standard, the specific activity of HPU was determined to be 17.0 U/mg. One unit of urease activity was defined as 1 μmol of ammonia released per min at 25°C. The amount of protein was determined by commercial Bradford Protein Assay Kit with BSA as a standard. The amount of ammonia released was decided from a standard curve. The activity of uninhibited urease was defined as the control activity of 100%.
Reaction mixtures comprising 0.25 mg/mL HPU or JBU and different concentrations of Pal or AHA at the volume ratio of 1:1, were incubated at 37°C in 20 mM HEPES buffer (pH 7.5) in the absence of urea. The reactions were initiated by mixing the urease and the inhibitor. The preincubation mixture was withdrawn at 20 min and immediately transferred into the standard assay mixtures for urease residual activity determination. Inhibition rate (%) was calculated following the formula: I % = (1-activity with inhibitors/activity without inhibitors) × 100%. The IC50 was expressed as the concentration of inhibitor that decreased urease activity by 50% and calculated by plotting the percent of inhibition. The experiments were triply performed.

[2] = target: T2, jack bean urease (JBU) (Canavalia ensiformis, UniProt P07374); assay: biochemical; format: biochemical; conditions: for activity at 500 µM: read-out: Urease activity, Fig 6B JBU, Pal 0.5 mM, DTT 1.25 mM
T2 construct: Urease from jack bean (Canavalia ensiformis, JBU); purchased Sigma-Aldrich (St Louis, MO, USA) type III (catalogue number not given)
T2 sequence (P07374 whole entry, looked up): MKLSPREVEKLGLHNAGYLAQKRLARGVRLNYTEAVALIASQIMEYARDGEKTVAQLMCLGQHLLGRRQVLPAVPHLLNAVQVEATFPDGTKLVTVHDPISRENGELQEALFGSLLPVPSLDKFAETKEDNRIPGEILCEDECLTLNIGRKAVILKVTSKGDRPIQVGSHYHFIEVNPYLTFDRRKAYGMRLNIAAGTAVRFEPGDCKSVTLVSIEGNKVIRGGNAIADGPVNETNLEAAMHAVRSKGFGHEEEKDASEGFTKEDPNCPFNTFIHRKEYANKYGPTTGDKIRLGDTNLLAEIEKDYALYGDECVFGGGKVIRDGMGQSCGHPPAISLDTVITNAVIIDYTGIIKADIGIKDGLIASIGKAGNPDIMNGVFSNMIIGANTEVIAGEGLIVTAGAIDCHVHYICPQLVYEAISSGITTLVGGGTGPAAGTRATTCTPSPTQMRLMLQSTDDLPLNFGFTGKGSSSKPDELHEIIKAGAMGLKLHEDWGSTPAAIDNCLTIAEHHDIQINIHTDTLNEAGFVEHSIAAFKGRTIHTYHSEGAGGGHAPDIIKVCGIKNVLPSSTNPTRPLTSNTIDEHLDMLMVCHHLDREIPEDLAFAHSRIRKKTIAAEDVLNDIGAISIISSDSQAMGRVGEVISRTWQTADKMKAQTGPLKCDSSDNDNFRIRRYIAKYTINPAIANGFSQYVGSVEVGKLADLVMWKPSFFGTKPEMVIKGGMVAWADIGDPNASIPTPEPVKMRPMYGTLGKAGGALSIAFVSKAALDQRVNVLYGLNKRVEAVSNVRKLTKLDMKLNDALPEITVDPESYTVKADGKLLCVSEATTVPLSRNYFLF
Procedure: (§1) The reactivation of Pal-inactivated urease was investigated by DTT application. The preincubation mixture consisted of 0.25 mg/mL HPU or JBU and 0.5 mM Pal in 20 mM HEPES buffer (pH 7.5). Then the mixture was further incubated with 1.25 mM DTT after 20 min. The enzymatic activity of urease was determined before and after the addition of DTT. After a while, aliquots were withdrawn and the urease residual activity was determined. The experiments were repeated three times.

[3] = target: T1, H. pylori urease (HPU); assay: biochemical; format: biochemical; conditions: for activity at 500 µM: read-out: Urease activity, Fig 6A HPU, Pal 0.5 mM, DTT 1.25 mM
Procedure: as §1

[4] = target: T2, jack bean urease (JBU); assay: biochemical; conditions: read-out: Residual urease activity (percent of control), Fig 4B JBU, Pal 0.5 mM, thiols 1.25 mM, replicates
Procedure: (§2) For the protection with thiols-containing compounds, the mixture consisting of 0.25 mg/mL urease (HPU or JBU), 0.5 mM Pal (for both HPU and JBU) and 1.25 mM thiols (DTT, GSH and L-cys) was incubated for 5, 10, 20, and 40 min at 37°C, respectively. The control sample instead of the protectors contained a proper volume of respective buffer.

[5] = target: T1, H. pylori urease (HPU); assay: biochemical; conditions: read-out: Residual urease activity (percent of control), Fig 4A HPU, Pal 0.5 mM, thiols 1.25 mM, replicates
Procedure: as §2

T1 sequence (P14916 whole entry): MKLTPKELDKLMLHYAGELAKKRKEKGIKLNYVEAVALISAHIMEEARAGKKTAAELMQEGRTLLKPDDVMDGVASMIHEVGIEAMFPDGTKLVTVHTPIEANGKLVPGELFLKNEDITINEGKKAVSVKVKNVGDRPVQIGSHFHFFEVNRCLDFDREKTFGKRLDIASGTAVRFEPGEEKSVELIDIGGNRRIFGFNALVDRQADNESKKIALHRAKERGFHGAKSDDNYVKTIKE
T1 sequence (P69996 whole entry): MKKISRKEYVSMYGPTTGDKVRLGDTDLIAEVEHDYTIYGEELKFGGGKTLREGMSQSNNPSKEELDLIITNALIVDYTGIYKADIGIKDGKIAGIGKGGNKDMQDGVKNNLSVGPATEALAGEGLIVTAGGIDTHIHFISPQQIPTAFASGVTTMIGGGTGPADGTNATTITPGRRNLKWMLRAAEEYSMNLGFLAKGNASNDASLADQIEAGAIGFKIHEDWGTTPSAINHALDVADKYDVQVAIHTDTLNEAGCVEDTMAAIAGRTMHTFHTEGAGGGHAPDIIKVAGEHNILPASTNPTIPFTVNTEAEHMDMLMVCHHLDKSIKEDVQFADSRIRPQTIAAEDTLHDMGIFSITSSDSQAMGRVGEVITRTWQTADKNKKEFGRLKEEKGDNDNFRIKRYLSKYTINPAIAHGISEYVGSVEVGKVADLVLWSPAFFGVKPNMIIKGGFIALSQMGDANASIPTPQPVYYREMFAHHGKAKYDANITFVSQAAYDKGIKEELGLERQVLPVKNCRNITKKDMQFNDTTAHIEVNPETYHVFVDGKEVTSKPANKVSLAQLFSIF

COc1cc2c(cc1OC)-c1cc3ccc(OC)c(OC)c3c[n+]1CC2 [Pal, Palmatine]
Residual activity ([1]; Fig 2A HPU, Pal 0.477 mM): 44.3368% and 41.1296% | Residual activity ([1]; Fig 2A HPU, Pal 0.954 mM): 18.2056% and 23.6712% | Residual activity ([1]; Fig 2C HPU, head prints Pal 0.00755209 mM): 104.061% and 86.9419% | Residual activity ([1]; Fig 2C HPU, head prints Pal 0.0151042 mM): 98.3628% and 84.9736% | Residual activity ([1]; Fig 2C HPU, head prints Pal 0.0302084 mM): 80.4878% and 87.2209% and 66.9067% | Residual activity ([1]; Fig 2C HPU, head prints Pal 0.0604167 mM): 64.023% and 48.6958% | Residual activity ([1]; Fig 2C HPU, head prints Pal 0.120833 mM): 34.9663% and 29.6848% | Residual activity ([1]; Fig 2C HPU, head prints Pal 0.241667 mM): 20.774% and 15.3785% | remaining activity at 14.9062 µM ([1]; read-out: Residual activity, Fig 2A HPU, Pal 0.0149062 mM): 98.5% | remaining activity at 29.8125 µM ([1]; read-out: Residual activity, Fig 2A HPU, Pal 0.0298125 mM): 92% | remaining activity at 59.625 µM ([1]; read-out: Residual activity, Fig 2A HPU, Pal 0.059625 mM): 88% | remaining activity at 119.25 µM ([1]; read-out: Residual activity, Fig 2A HPU, Pal 0.11925 mM): 77.1% | remaining activity at 238.5 µM ([1]; read-out: Residual activity, Fig 2A HPU, Pal 0.2385 mM): 66.8% | remaining activity at 477 µM ([1]; read-out: Residual activity, Fig 2A HPU, Pal 0.477 mM): 49.6% | remaining activity at 954 µM ([1]; read-out: Residual activity, Fig 2A HPU, Pal 0.954 mM): 24.2% | remaining activity at 7.55209 µM ([1]; read-out: Residual activity, Fig 2C HPU, head prints Pal 0.00755209 mM): 94.8% | remaining activity at 15.1042 µM ([1]; read-out: Residual activity, Fig 2C HPU, head prints Pal 0.0151042 mM): 92.1% | remaining activity at 60.4167 µM ([1]; read-out: Residual activity, Fig 2C HPU, head prints Pal 0.0604167 mM): 56.1% | remaining activity at 120.833 µM ([1]; read-out: Residual activity, Fig 2C HPU, head prints Pal 0.120833 mM): 31% | remaining activity at 241.667 µM ([1]; read-out: Residual activity, Fig 2C HPU, head prints Pal 0.241667 mM): 23.2% | activity at 500 µM ([2]; 5 min, incubation time 5 min): 32.2% | activity at 500 µM ([2]; 10 min, incubation time 10 min): 20.5% | activity at 500 µM ([2]; 0.25 h, incubation time 15 min): 21.6% | activity at 500 µM ([2]; 20 min, incubation time 20 min): 30.9% | reversibility of inhibition ([2]; JBU, DTT reactivation assay): reversible | activity at 500 µM ([3]; 5 min, incubation time 5 min): 54% | activity at 500 µM ([3]; 10 min, incubation time 10 min): 49.3% | activity at 500 µM ([3]; 0.25 h, incubation time 15 min): 49.3% | activity at 500 µM ([3]; 20 min, incubation time 20 min): 31.8% | reversibility of inhibition ([3]; HPU, DTT reactivation assay): reversible | remaining activity at 500 µM ([4]; 5 min incubation): 30.8% | remaining activity at 500 µM ([4]; 10 min incubation): 35.2% | remaining activity at 500 µM ([4]; 20 min incubation): 34.3% | remaining activity at 500 µM ([4]; 40 min incubation): 32.7% | remaining activity at 500 µM ([5]; 5 min incubation): 68.6% | remaining activity at 500 µM ([5]; 10 min incubation): 62.4% | remaining activity at 500 µM ([5]; 20 min incubation): 40.4% | remaining activity at 500 µM ([5]; 40 min incubation): 24.2%

— publication PMC5207512, “Inhibition of Helicobacter pylori and Its Associated Urease by Palmatine: Investigation on the Potential Mechanism” (PLoS ONE, 2017)
